Patent US6355823B1 (Board of Regents, The University of Texas System, priority 1999, dated 2002)

Tests used:
[1] = system: intestinal Na/phosphate co-transporter; test: [3H]AZPP photolabeling of Ca-BBM protein, papain digest and immunoprecipitation; format: binding
Procedure: Ca-BBM protein (1.8 nmoles 2′-PP binding sites as determined from 9 pmoles [^3H]2′-PP bound/mg protein) was labeled with [^3H]AZPP (1 minute incubation with 10 μM [^3H]AZPP at 4° C. in 150 mM NaCl and 10 mM sodium borate pH 7, followed by a 1 minute exposure to visible light). Following centrifugation to remove excess label, BBM protein was digested with papain as previously described in Peerce, B. E. (1995) Biochim. Biophys. Acta. 1239: 11-21 and Peerce, B. E.; Cedilote, M. and Clarke, R. D. (1995) Biochim. Biophys. Acta. 1239: 1-10, and resolved into membrane-retained and soluble peptides. 95% of the radioactivity was in the membrane-retained fraction. SDS-solubilization of the membrane-retained fraction released 85% of the radioactivity.
A polyclonal antibody to the intestinal Na/phosphate co-transporter (KL9.2) developed in the laboratory was used to immunoprecipitate CHAPS-solubilized [^3H]AZPP-labeled Ca-BBM protein. The complex was electrophoresed by SDS-PAGE and stained with Coomassie blue, according to the method of Laemmli, U.K 1970 Nature (Lond.) 227: 680-685. A track was cut into 2 mm slices, and the slices counted for tritium. […] The residual 12%±2%, n=3, of the applied label appeared to be non-specifically associated with lipid (chloroform:methanol extracted).

[2] = target: T1, intestinal Na/phosphate co-transporter (Oryctolagus cuniculus, UniProt G1SIP4); test: Na-dependent [32P]phosphate uptake by rabbit intestinal brush border membrane (BBM) vesicles
T1 sequence (G1SIP4 1-715): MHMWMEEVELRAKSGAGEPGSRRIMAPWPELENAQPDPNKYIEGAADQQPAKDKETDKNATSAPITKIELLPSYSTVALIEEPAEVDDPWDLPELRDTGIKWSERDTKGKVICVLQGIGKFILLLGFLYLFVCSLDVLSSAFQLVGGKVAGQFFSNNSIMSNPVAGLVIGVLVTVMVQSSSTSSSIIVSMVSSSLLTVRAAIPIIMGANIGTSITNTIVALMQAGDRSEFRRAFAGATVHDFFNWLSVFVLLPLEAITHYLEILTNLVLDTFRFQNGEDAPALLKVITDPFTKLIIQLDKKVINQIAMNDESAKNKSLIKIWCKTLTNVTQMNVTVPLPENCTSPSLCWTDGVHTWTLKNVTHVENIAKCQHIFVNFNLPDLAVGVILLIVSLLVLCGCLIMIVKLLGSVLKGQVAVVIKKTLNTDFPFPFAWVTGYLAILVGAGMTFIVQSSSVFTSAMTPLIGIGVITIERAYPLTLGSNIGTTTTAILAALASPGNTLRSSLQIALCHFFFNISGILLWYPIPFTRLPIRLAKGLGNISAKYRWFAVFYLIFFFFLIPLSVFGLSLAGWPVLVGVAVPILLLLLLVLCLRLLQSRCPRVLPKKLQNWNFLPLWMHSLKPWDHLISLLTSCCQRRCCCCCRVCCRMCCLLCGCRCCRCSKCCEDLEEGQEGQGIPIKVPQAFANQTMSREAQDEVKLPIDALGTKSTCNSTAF

[3] = target: T2, intestinal BBM Na/phosphate co-transporter (Oryctolagus cuniculus, UniProt G1SIP4); settings: read-out: concentration inhibiting 50% of Na-dependent 2′-PP bound to Ca-BBM
T2 sequence (G1SIP4 25-715): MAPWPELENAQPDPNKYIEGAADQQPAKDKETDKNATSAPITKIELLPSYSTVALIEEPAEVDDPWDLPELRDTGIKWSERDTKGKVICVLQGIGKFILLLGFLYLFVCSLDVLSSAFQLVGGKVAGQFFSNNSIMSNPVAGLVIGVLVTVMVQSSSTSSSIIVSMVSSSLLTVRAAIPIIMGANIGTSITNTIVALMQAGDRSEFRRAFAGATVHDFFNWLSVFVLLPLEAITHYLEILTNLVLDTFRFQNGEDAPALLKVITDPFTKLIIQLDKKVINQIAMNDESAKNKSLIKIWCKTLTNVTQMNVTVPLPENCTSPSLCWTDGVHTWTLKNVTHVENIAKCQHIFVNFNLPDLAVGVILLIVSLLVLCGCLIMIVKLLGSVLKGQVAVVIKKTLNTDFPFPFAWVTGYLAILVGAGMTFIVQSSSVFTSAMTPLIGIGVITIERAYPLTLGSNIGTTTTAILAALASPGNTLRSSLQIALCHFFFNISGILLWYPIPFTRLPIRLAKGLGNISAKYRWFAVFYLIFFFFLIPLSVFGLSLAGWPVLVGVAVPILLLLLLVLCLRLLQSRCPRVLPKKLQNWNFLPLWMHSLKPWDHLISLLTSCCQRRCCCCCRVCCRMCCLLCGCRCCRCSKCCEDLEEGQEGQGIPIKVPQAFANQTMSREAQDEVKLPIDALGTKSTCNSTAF

## [N-]=[N+]=Nc1cc(CCC(=O)c2c(O)cc(OP(=O)(O)O)cc2O)ccc1O [AZPP, 1-[2,6-dihydroxy-4-(phosphonooxy)phenyl]-3-(3-azido-4-hydroxyphenyl)-1-propanone]
[1]
  labeled species on urea gel electrophoresis after papain digestion of SDS soluble protein: single 24 kDa polypeptide
  radioactivity released by SDS-solubilization of the membrane-retained fraction: 85%
[1]; 10 μM [3H]AZPP, 4° C., 150 mM NaCl, visible light
  radioactivity in the membrane-retained fraction after papain digestion: 95%
[1]; CHAPS-solubilized labeled Ca-BBM protein
  labeled species on SDS-PAGE after immunoprecipitation with antibody KL9.2: single 120-kDa polypeptide
[1]; chloroform:methanol extracted, n=3
  residual applied label non-specifically associated with lipid: 12%

## O=C(CCc1ccc(O)cc1)c1c(O)cc(NP(=O)(O)O)cc1O [NHPP]
[2]; Dixon plot, with respect to phosphate
  type of inhibition of Na-dependent phosphate uptake: competitive inhibitor
[2]; read-out: K1 (Kl) for inhibition of Na-dependent phosphate uptake, from replot of Dixon plot slope, phosphate 50, 100, 250 μM, n=3
  Ki: 6.9 ± 1 µM

## Phosphate [reference compound]
[3]
  IC50: 105 ± 15 µM
